Assay results: ChEMBL document CHEMBL1201862, “PubChem BioAssay data set” (2004)
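In this assay, cells in 96-well plates receive the compound at five concentrations for 48 hours. Endpoints are linearly interpolated between the surrounding concentrations. Abbreviation: GI50, concentration required for 50% inhibition of growth.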 Active and inactive are the calls of the source. Cut-off read from the data, not from the text of the source: active = GI50 up to about 1.1 µM and inactive = higher.

Columns and labels:
Assay in all cases: NCI-60 cell line screen, 48 h
786-0 = system: 786-0
A498 = system: A498
A549 = system: A549
ACHN = system: ACHN
BT-549 = system: BT-549
CCRF-CEM = system: CCRF-CEM
COLO 205 = system: COLO 205
DU-145 = system: DU-145
EKVX = system: EKVX
HCC 2998 = system: HCC 2998
HCT-116 = system: HCT-116
HCT-15 = system: HCT-15
HL-60 = system: HL-60
HOP-62 = system: HOP-62
HOP-92 = system: HOP-92
HT-29 = system: HT-29
Hs-578T = system: Hs-578T
IGROV-1 = system: IGROV-1
K562 = system: K562
KM12 = system: KM12
LOX IMVI = system: LOX IMVI
M14 = system: M14
MCF7 = system: MCF7
MDA-MB-231 = system: MDA-MB-231
MDA-MB-435 = system: MDA-MB-435
MDA-N = system: MDA-N
MOLT-4 = system: MOLT-4
Malme-3M = system: Malme-3M
NCI-H226 = system: NCI-H226
NCI-H23 = system: NCI-H23
NCI-H460 = system: NCI-H460
NCI/ADR-RES = system: NCI/ADR-RES
OVCAR-3 = system: OVCAR-3
OVCAR-4 = system: OVCAR-4
OVCAR-5 = system: OVCAR-5
OVCAR-8 = system: OVCAR-8
PC-3 = system: PC-3
RPMI-8226 = system: RPMI-8226
RXF 393 = system: RXF 393
SF-268 = system: SF-268
SF-295 = system: SF-295
SF-539 = system: SF-539
SK-MEL-28 = system: SK-MEL-28
SK-MEL-2 = system: SK-MEL-2
SK-MEL-5 = system: SK-MEL-5
SK-OV-3 = system: SK-OV-3
SN12C = system: SN12C
SNB-19 = system: SNB-19
SNB-75 = system: SNB-75
SR = system: SR
SW-620 = system: SW-620
T47D = system: T47D
TK-10 = system: TK-10
U-251 = system: U-251
UACC-257 = system: UACC-257
UACC-62 = system: UACC-62
UO-31 = system: UO-31

Q: Which GI50 (786-0) does the source give for CNC(=O)OCC1=C(COC(=O)NC)C(C)N(c2ccccc2)C1 (stereo not drawn) here?
A: 47.2 µM (inactive)

Q: What about the GI50 (A498) of the same compound?
A: 3.05 µM (inactive)

Q: And the GI50 (A549)?
A: 48 µM (inactive)

Q: And the GI50 (ACHN)?
A: 33.7 µM (inactive)

Q: What about the GI50 (BT-549) of the same compound?
A: 50.9 µM (inactive)

Q: What about the GI50 (CCRF-CEM) of the same compound?
A: 37.2 µM (inactive)

Q: And the GI50 (COLO 205)?
A: 21.2 µM (inactive)

Q: And the GI50 (DU-145)?
A: 54.5 µM (inactive)

Q: And the GI50 (EKVX)?
A: 46.1 µM (inactive)

Q: And the GI50 (HCC 2998)?
A: 25.2 µM (inactive)

Q: And the GI50 (HCT-116)?
A: 39.9 µM (inactive)

Q: And the GI50 (HCT-15)?
A: 31 µM

Q: What about the GI50 (HL-60) of the same compound?
A: 21.7 µM (inactive)

Q: What about the GI50 (HOP-62) of the same compound?
A: 53.6 µM (inactive)

Q: What about the GI50 (HOP-92) of the same compound?
A: 28.8 µM (inactive)

Q: What about the GI50 (HT-29) of the same compound?
A: 22.6 µM (inactive)

Q: What about the GI50 (Hs-578T) of the same compound?
A: 43.4 µM (inactive)

Q: What about the GI50 (IGROV-1) of the same compound?
A: 26.2 µM (inactive)

Q: And the GI50 (K562)?
A: 26.7 µM (inactive)

Q: And the GI50 (KM12)?
A: 30.5 µM (inactive)

Q: And the GI50 (LOX IMVI)?
A: 32.7 µM (inactive)

Q: And the GI50 (M14)?
A: 30.1 µM (inactive)

Q: What about the GI50 (MCF7) of the same compound?
A: 20.8 µM (inactive)

Q: And the GI50 (MDA-MB-231)?
A: 41.2 µM (inactive)

Q: What about the GI50 (MDA-MB-435) of the same compound?
A: 38.3 µM (inactive)

Q: What about the GI50 (MDA-N) of the same compound?
A: 33.8 µM (inactive)

Q: What about the GI50 (MOLT-4) of the same compound?
A: 23 µM (inactive)

Q: And the GI50 (Malme-3M)?
A: 33.9 µM (inactive)

Q: What about the GI50 (NCI-H226) of the same compound?
A: 11.3 µM (inactive)

Q: And the GI50 (NCI-H23)?
A: 38.1 µM (inactive)

Q: And the GI50 (NCI-H460)?
A: 29 µM (inactive)

Q: What about the GI50 (NCI/ADR-RES) of the same compound?
A: 46.5 µM (inactive)

Q: And the GI50 (OVCAR-3)?
A: 30.4 µM (inactive)

Q: And the GI50 (OVCAR-4)?
A: 37.8 µM (inactive)

Q: What about the GI50 (OVCAR-5) of the same compound?
A: 25.4 µM (inactive)

Q: What about the GI50 (OVCAR-8) of the same compound?
A: 36.6 µM (inactive)

Q: And the GI50 (PC-3)?
A: 40.5 µM (inactive)

Q: What about the GI50 (RPMI-8226) of the same compound?
A: 24.6 µM (inactive)

Q: And the GI50 (RXF 393)?
A: 28.4 µM (inactive)

Q: What about the GI50 (SF-268) of the same compound?
A: 37.7 µM (inactive)

Q: What about the GI50 (SF-295) of the same compound?
A: 33.7 µM (inactive)

Q: What about the GI50 (SF-539) of the same compound?
A: 23.3 µM (inactive)

Q: What about the GI50 (SK-MEL-28) of the same compound?
A: 35.3 µM (inactive)

Q: What about the GI50 (SK-MEL-2) of the same compound?
A: 22.6 µM (inactive)

Q: What about the GI50 (SK-MEL-5) of the same compound?
A: 17.1 µM (inactive)

Q: And the GI50 (SK-OV-3)?
A: 42.4 µM (inactive)

Q: What about the GI50 (SN12C) of the same compound?
A: 72.9 µM (inactive)

Q: And the GI50 (SNB-19)?
A: 58.5 µM (inactive)

Q: And the GI50 (SNB-75)?
A: 39.4 µM (inactive)

Q: What about the GI50 (SR) of the same compound?
A: 24.5 µM (inactive)

Q: And the GI50 (SW-620)?
A: 46.1 µM (inactive)

Q: What about the GI50 (T47D) of the same compound?
A: 26.7 µM (inactive)

Q: And the GI50 (TK-10)?
A: 24.5 µM (inactive)

Q: And the GI50 (U-251)?
A: 31.8 µM (inactive)

Q: And the GI50 (UACC-257)?
A: 35.6 µM (inactive)

Q: And the GI50 (UACC-62)?
A: 26.2 µM (inactive)

Q: And the GI50 (UO-31)?
A: 22.9 µM (inactive)

Q: What does the source list for Cc1ccc(SC2C(=O)C3CC(OCc4ccccc4)C2(C)C3(C)C)cc1 (stereo not drawn)?
A: GI50 (786-0): > 100 µM (inactive); GI50 (A498): > 100 µM (inactive); GI50 (A549): > 100 µM (inactive); GI50 (ACHN): > 100 µM (inactive); GI50 (BT-549): > 100 µM (inactive); GI50 (CCRF-CEM): 73.8 µM (inactive); GI50 (DU-145): > 100 µM (inactive); GI50 (EKVX): 64.7 µM (inactive); GI50 (HCC 2998): > 100 µM (inactive); GI50 (HCT-116): 9.66 µM (inactive); GI50 (HCT-15): 29.1 µM; GI50 (HL-60): 37.9 µM (inactive); GI50 (HOP-62): > 100 µM (inactive); GI50 (HOP-92): 29.6 µM (inactive); GI50 (HT-29): 41.9 µM (inactive); GI50 (Hs-578T): > 100 µM (inactive); GI50 (IGROV-1): > 100 µM (inactive); GI50 (K562): 32.9 µM (inactive); GI50 (KM12): > 100 µM (inactive); GI50 (M14): > 100 µM (inactive); GI50 (MCF7): > 100 µM (inactive); GI50 (MDA-MB-231): > 100 µM (inactive); GI50 (MDA-MB-435): > 100 µM (inactive); GI50 (MDA-N): > 100 µM (inactive); GI50 (MOLT-4): 13 µM (inactive); GI50 (Malme-3M): > 100 µM (inactive); GI50 (NCI-H226): > 100 µM (inactive); GI50 (NCI-H23): 46.8 µM (inactive); GI50 (NCI-H460): > 100 µM (inactive); GI50 (NCI/ADR-RES): > 100 µM (inactive); GI50 (OVCAR-3): > 100 µM (inactive); GI50 (OVCAR-5): > 100 µM (inactive); GI50 (OVCAR-8): > 100 µM (inactive); GI50 (PC-3): 12.4 µM (inactive); GI50 (RXF 393): 52 µM (inactive); GI50 (SF-268): > 100 µM (inactive); GI50 (SF-295): > 100 µM (inactive); GI50 (SF-539): > 100 µM (inactive); GI50 (SK-MEL-28): > 100 µM (inactive); GI50 (SK-MEL-2): 38.7 µM (inactive); GI50 (SK-MEL-5): > 100 µM (inactive); GI50 (SK-OV-3): > 100 µM (inactive); GI50 (SN12C): > 100 µM (inactive); GI50 (SNB-19): > 100 µM (inactive); GI50 (SR): 51.3 µM (inactive); GI50 (SW-620): > 100 µM (inactive); GI50 (T47D): 13.1 µM (inactive); GI50 (TK-10): > 100 µM (inactive); GI50 (U-251): 39.3 µM (inactive); GI50 (UACC-62): > 100 µM (inactive); GI50 (UO-31): > 100 µM (inactive)
